Tested on: male spontaneously hypertensive rats
Assay: Decrease in systolic blood pressure in spontaneously hypertensive rats after intravenous bolus injection, indirect (tail-cuff) method
Type: in vivo, rat
Conditions: for Decrease in systolic blood pressure (mmHg) time after administration (hour) 0.5: 0.5 hour after administration; for Decrease in systolic blood pressure (mmHg) time after administration (hour) 4: 4 hours after administration
Experimental: As test animals, four male spontaneously hypertensive rats (weight 400 to 440 g) that were sufficiently adapted for feeding and in which hypertension was confirmed were used.
Physiological saline aqueous solution containing 2.5% Nicolle and 2.5% ethanol of sample was intravenously administered by bolus injection at a dose of 1 ml per 1 kg of body weight. Systolic blood pressure after administration was measured by the indirect (tail-cuff) method.

| SMILES | Decrease in systolic blood pressure (mmHg) time after administration (hour) 0.5 (dose 10 mg/kg i.v. bolus) | Decrease in systolic blood pressure (mmHg) time after administration (hour) 4 (dose 10 mg/kg i.v. bolus) | also measured |
| --- | --- | --- | --- |
| Cl.O=C(CCCN1CCC(=C2c3ccccc3C=Cc3ccccc32)CC1)C1CCCCC1 [Example 176, 1-Cyclohexyl-3,(4-(5H-dibenzo[a,d]cyclohepten-5-ylidene)-1-piperidinyl)propylketone hydrochloride] | −105 mmHg | −10 mmHg |  |
| CCCCCCCCCCCCN1CCC(=C2c3ccccc3C=Cc3ccccc32)CC1.Cl [Example 4, 4-(5H-Dibenzo[a,d]cyclohepten-5-ylidene)-1-dodecylpiperidine hydrochloride] | −76 mmHg | 0 mmHg |  |
| COc1ccc(CCCCN2CCC(=C3c4ccccc4C=Cc4ccccc43)CC2)cc1NC(C)=O.Cl [Example 282, 1-(3-Acetylamino-4-methoxyphenyl)-4-(4-(5H-dibenzo[a,d]cyclohepten-5-ylidene)-1-piperidinyl)butane hydrochloride] | −72 mmHg | −15 mmHg |  |
| Cl.N#CC(CCCCl)(CCCN1CCC(=C2c3ccccc3C=Cc3ccccc32)CC1)c1ccccc1 (stereo not drawn) [Example 52, 2-(3-Chloropropyl)-5-(4-(5H-dibenzo[a,d]cyclohepten-5-ylidene)-1-piperidinyl)-2-phenylvaleronitrile hydrochloride] | −23 mmHg | −9 mmHg |  |
| COC1=C(OC)CC2=CC=CC(CN3CCC(=C4c5ccccc5C=Cc5ccccc54)CC3)=CC2=C1.Cl [Example 319, 6-(4-(5H-Dibenzo[a,d]cyclohepten-5-ylidene)-1-piperidinyl)methyl-2,3-dimethoxybenzocycloheptene hydrochloride] | −104 mmHg | −20 mmHg |  |
| COc1ccc(C(=O)CCCN2CCC(=C3c4ccccc4CSc4ccccc43)CC2)cc1OC.Cl [Example 229, 4-(4-(5H-Dibenzo[a,d]thiepin-5-ylidene)-1-piperidinyl)-3+,4+-dimethoxybutyrophenone hydrochloride] |  |  | Decrease in systolic blood pressure (mmHg) time after administration (hour) 0.5 (dose 3 mg/kg i.v. bolus): −77 mmHg; Decrease in systolic blood pressure (mmHg) time after administration (hour) 4 (dose 3 mg/kg i.v. bolus): −14 mmHg |
| Cl.N#Cc1ccc(CN2CCC(=C3c4ccccc4C=Cc4ccccc43)CC2)cc1 [Example 160, 1-(4-Cyanobenzyl)-4-(5H-dibenzo[a,d]cyclohepten-5-ylidene)piperidine hydrochloride] | −3 mmHg | −10 mmHg |  |
| COC(=O)c1cccc(C=CCN2CCC(=C3c4ccccc4C=Cc4ccccc43)CC2)c1.Cl [Example 375, 4-(5H-Dibenzo[a,d]cyclohepten-5-ylidene)-1-(3-methoxycarbonylcinnamyl)piperidine hydrochloride] |  |  | Decrease in systolic blood pressure (mmHg) time after administration (hour) 0.5 (dose 1 mg/kg i.v. bolus): −126 mmHg; Decrease in systolic blood pressure (mmHg) time after administration (hour) 4 (dose 1 mg/kg i.v. bolus): −70 mmHg |
| C(=Cc1ccccc1)CN1CCC(=C2c3ccccc3C=Cc3ccccc32)CC1.Cl [Example 38, 1-Cinnamyl-4-(5H-dibenzo[a, d]cyclohepten-5-ylidene)piperidine hydrochloride] | −140 mmHg | −76 mmHg |  |
| COc1ccc(C(=O)NCCN2CCC(=C3c4ccccc4C=Cc4ccccc43)CC2)cc1OC.Cl [Example 242, N-(2-(5H-Dibenzo[a,d]cyclohepten-5-ylidene)-1-piperidinyl)ethyl-3′,4′-dimethoxybenzamide hydrochloride] | −28 mmHg | 7 mmHg |  |
| Cl.Clc1cccc(CN2CCC(=C3c4ccccc4C=Cc4ccccc43)CC2)c1 [Example 129, 1-(3-Chlorobenzyl)-4-(5H-Dibenzo[a,d]cyclohepten-5-ylidene)piperidine hydrochloride] | −17 mmHg | −1 mmHg |  |
| Cl.OC(CCN1CCC(=C2c3ccccc3C=Cc3ccccc32)CC1)c1ccc(F)cc1 (stereo not drawn) [Example 107, 3-(4-(5H-Dibenzo[a,d]cyclohepten-5-ylidene)-1-piperidinyl)-1-hydroxy-1-(4-fluorophenyl)propane hydrochloride] | −88 mmHg | −11 mmHg |  |
| Cl.O=C(NCCN1CCCCC1=C1c2ccccc2C=Cc2ccccc21)c1ccc([N+](=O)[O-])cc1 [Example 237, N-(2-(5H-Dibenzo[a,d]cyclohepten-5-ylidene)-1-piperidinyl)ethyl-4-nitrobenzamide hydrochloride] | −65 mmHg | −14 mmHg |  |
| Cl.Fc1ccc(C=CCN2CCC(=C3c4ccccc4C=Cc4ccccc43)CC2)cc1 [Example 353] | −147 mmHg | −138 mmHg |  |
| COc1ccc(C(C#N)(CCCN2CCC(=C3c4ccccc4C=Cc4ccccc43)CC2)C(C)C)cc1OC.Cl (stereo not drawn) [Example 31, 5-(4-(5H-Dibenzo[a,d]cyclohepten-5-ylidene)-1-piperidinyl)-2-(3,4-dimethoxyphenyl)-2-isopropylvaleronitrile hydrochloride] | −61 mmHg | −11 mmHg |  |
| COc1cccc(CN2CCC(=C3c4ccccc4C=Cc4ccccc43)CC2)c1OC.Cl [Example 173, 4-(5H-Dibenzo[a,d]cyclohepten-5-ylidene)-1-(2,3-dimethoxybenzyl)piperidine hydrochloride] | −98 mmHg | −25 mmHg |  |
| Cl.O=C1CCCCC1CCCCN1CCC(=C2c3ccccc3C=Cc3ccccc32)CC1 (stereo not drawn) [Example 215, 2-(4-(4-(5H-Dibenzo[a,d]cyclohepten-5-ylidene)-1-piperidinyl)butyl)cyclohexanone hydrochloride] | −128 mmHg | −14 mmHg |  |
| COc1cc2nc(N3CCC(=C4c5ccccc5C=Cc5ccccc54)CC3)nc(N)c2cc1OC.Cl.Cl [Example 266, 2-(4-(5H-Dibenzo[a,d]cyclohepten-5-ylidene)-1-piperidinyl)-4-amino-6,7-dimethoxyquinazoline dihydrochloride] | −133 mmHg | −77 mmHg |  |
| Cl.O=C(CCCN1CCC(=C2c3ccccc3C=Cc3ccccc32)CC1)N1CCc2ccccc2C1 [Example 204, N-(4-(4-(5H-Dibenzo[a,d]cyclohepten-5-ylidene)-1-piperidinyl)butanoyl)-1,2,3,4-tetrahydroisoquinoline hydrochloride] | −141 mmHg | −84 mmHg |  |
| Cl.Nc1ccc(C=CCN2CCC(=C3c4ccccc4C=Cc4ccccc43)CC2)cc1 [Example 231, 1-(4-Aminocinnamyl)-4-(5H-dibenzo[a,d]cyclohepten-5-ylidene)piperidine hydrochloride] |  |  | Decrease in systolic blood pressure (mmHg) time after administration (hour) 0.5 (dose 3 mg/kg i.v. bolus): −132 mmHg; Decrease in systolic blood pressure (mmHg) time after administration (hour) 4 (dose 3 mg/kg i.v. bolus): −115 mmHg |
| C1=Cc2ccccc2C(=C2CCN(CCCCCCC3CCCCC3)CC2)c2ccccc21.Cl [Example 154, 1-Cyclohexyl-6-(4-(5H-dibenzo[a,d]cyclohepten-5-ylidene)-1-piperidinyl)hexane hydrochloride] | −131 mmHg | −105 mmHg |  |
| COc1ccc(C(=O)CCN2CCC(=C3c4ccccc4C=Cc4ccccc43)CC2)cc1OC.Cl [Example 168, 3-(4-(5H-Dibenzo[a,d]cyclohepten-5-ylidene)-1-piperidinyl)-3′,4′-dimethoxypropiophenone hydrochloride] | −108 mmHg | 0 mmHg |  |
| C1=Cc2ccccc2C(=C2CCN(CCCC3CCCCC3)CC2)c2ccccc21.Cl [Example 9, 1-Cyclohexyl-3-(4-(5H-dibenzo[a,d]cyclohepten-5-ylidene)-1-piperidinyl)propane hydrochloride] | −91 mmHg | −19 mmHg |  |
| Cl.O=C(Nc1ccc(C=CCN2CCC(=C3c4ccccc4C=Cc4ccccc43)CC2)cc1)C(F)(F)F [Example 380, 4-(5H-Dibenzo[a,d]cyclohepten-5-ylidene)-1-(4-trifluoroacetylaminocinnamyl)piperidine hydrochloride] |  |  | Decrease in systolic blood pressure (mmHg) time after administration (hour) 0.5 (dose 0.3 mg/kg i.v. bolus): −141 mmHg |
| Cl.O=[N+]([O-])c1cccc2c1CC(CCN1CCC(=C3c4ccccc4C=Cc4ccccc43)CC1)C2 (stereo not drawn) [Example 354, 2-(2-(4-(5H-Dibenzo[a,d]cyclohepten-5-ylidene)-1-piperidinyl)-1-ethyl)-4′-nitroindan hydrochloride] |  |  | Decrease in systolic blood pressure (mmHg) time after administration (hour) 0.5 (dose 3 mg/kg i.v. bolus): −89 mmHg; Decrease in systolic blood pressure (mmHg) time after administration (hour) 4 (dose 3 mg/kg i.v. bolus): −8 mmHg |
| CC(CC(=O)N1CCSCC1)N1CCC(=C2c3ccccc3C=Cc3ccccc32)CC1.Cl (stereo not drawn) [Example 246] | −34 mmHg | −4 mmHg |  |
